Columns and labels:
[1] = Lipid clearance: mouse liver tissue level and % dose remaining in liver after intravenous administration; format: in vivo; settings: mouse, liver, 0.5 mg/kg
[2] = Particle size and polydispersity index of nanoparticle compositions (Zetasizer Nano ZS); format: physicochemical
Summary of the method: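 Formulations of ionizable lipid, DSPC, cholesterol and PEG-DMG (50:10:38.5:1.5 mol %) carrying Luc or hEPO mRNA with all uridines as N1-methyl pseudouridine. Dynamic light scattering in 1×PBS gave particle size and polydispersity; zeta potential read in 15 mM PBS.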

[3] = Encapsulation efficiency of RNA in nanoparticle compositions (RIBOGREEN assay); format: physicochemical
Summary of the method: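 Lipid nanoparticles (ionisable lipid:DSPC:cholesterol:PEG-DMG 50:10:38.5:1.5 mol %) carrying N1-methylpseudouridine luciferase or hEPO mRNA diluted to about 5 μg/mL in TE, pH 7.5, with or without 2% Triton X-100, 15 min at 37° C. RiboGreen fluorescence (ex ~480, em ~520 nm) blank-subtracted; free RNA = intact/disrupted signal.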

[4] = tested on: luciferase (Luc) mRNA; experiment: Luciferase expression (whole body bioluminescence) after intravenous administration to mice; format: in vivo; settings: for Novel lipid/MC3 expression ratio, i.v.: 6 hr. time point, relative to MC3 formulation
Summary of the method: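 Luc mRNA nanoparticles were given IV at 0.5 mg/kg to groups of six mice, and whole-body bioluminescent flux was imaged 3, 6 and 24 h post-dose. Flux AUC for each lipid formulation was reported as a ratio to the MC3 reference formulation.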

[5] = tested on: luciferase (Luc) mRNA; experiment: Luciferase expression after intramuscular administration to mice; format: in vivo; settings: intramuscular; for Novel lipid/MC3 expression ratio, i.m. Luc: luciferase, 6 hr. time point, relative to MC3 formulation
Excerpt: The numbers 1-7 in this figure correspond to MC3, Compounds 168-170, and 173-175 respectively.
FIGS. 18A and 18B show the results of luciferase expression measured upon intramuscular administration of various nanoparticle compositions to CD-1 mice at 0.01 mpk. FIG. 18A is a bar graph showing total flux at 6 hr after administration. The numbers above each bar indicate the expression ratio relative to MC3. […] Numbers 1-11 in the Figures refer to compositions containing the following: 1: MC3, 2: Compound 143, 3: Compound 49; 4: Compound 113; 5: Compound 61; 6: Compound 72; 7: Compound 75; 8: Compound 71; 9: Compound 128; 10: Compound 156; 11: Compound 157.
The numbers 1-9 in this figure correspond to MC3, and Compounds 178, 181, 182, 218, 198, 200, 233, and 239, respectively.
The total flux (measured by area under the curve, AUC) induced by administration of a formulation including a given lipid relative to that induced by administration of a formulation including MC3 was also measured for several lipids.
Sample formulations including modified luciferase (Luc) mRNA prepared and administered intramuscularly and the resulting expression and immunogenicity were evaluated simultaneously. Formulations including compounds according to Formula (I), (IA), (IB), (II), (IIa), (IIb), (IIc), (IId), (IIe), (IIf), (IIg), or (III) were prepared and administered at dose of and 0.01 mpk.

[6] = tested on: modified luciferase; experiment: Luciferase expression in liver, lung, spleen and femur 6 hours after intravenous administration to mice; format: in vivo; settings: 6 hours after intravenous 0.5 mpk, mice
Summary of the method: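 Mice (n=3) got a single 0.5 mpk IV dose of each nanoparticle composition, with MC3 and PBS controls alongside. Organ luminescence flux was read 6 h post-dose.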

[7] = tested on: IL-6, IP-10; experiment: Cytokine induction (IL-6, IP-10) in mice 6 hours after intravenous administration; format: in vivo; parameters: unit not given here; settings: intravenous 0.5 mpk
Excerpt: The introduction of foreign material into a mammalian body induces an innate immune response that promotes cytokine production. Such immune responses to, for example, nanoparticle compositions including therapeutic and/or prophylactics, are undesirable. The induction of certain cytokines is thus measured to evaluate the […] of nanoparticle compositions. The concentrations of various cytokines in mice upon intravenous administration of nanoparticle compositions presented in Table 1A at a dosage of 0.5 mpk was measured at 6 hours. The standard MC3 formulation and a PBS control were also tested. As is evident in Table 7, IL-6 induction was highest for compositions including Compounds 1, 3, 9, 19, and 26, while IP-10 induction was highest for compositions including Compounds 3, 4, 7, 20, and 26. IL-6 induction was lowest for compositions including Compounds 4, 11, 12, and 28. IP-10 induction was lowest for compositions including Compounds 10, 11, 12, 13, 15, 17, and 18.

[8] = Table 1A, lipid:DSPC:cholesterol:PEG-DMG 50:10:38.5:1.5 mol %
[9] = Table 1B, formulated with hEPO mRNA
[10] = Table 1E, compositions for subcutaneous administration

| concentration at 6 h [1] [ng/g] | concentration at 24 h [1] [ng/g] | Size [2, 8] [nm] | EE [3, 8] [%] | Structure (SMILES) | Novel lipid/MC3 expression ratio, i.m. Luc [5] | Novel lipid/MC3 expression ratio, i.v. ([4]; intravenous, luciferase) | further results |
| --- | --- | --- | --- | --- | --- | --- | --- |
| 261 | 0 | 72.7 | 94.1 | CCCCCCCCC(CCCCCCCC)C(=O)OCCCCCCCN(CCO)C(C)CCCCCCCCOC(=O)CCCCCCC (stereo not drawn) [Compound 162, 7-((2-Hydroxyethyl)(10-(octanoyloxy)decan-2-yl)amino)heptyl 2-octyldecanoate] | – | – | – |
| 51.5 | 0 | 89.0 | 94.0 | CCCCCCCCCOC(=O)CCCCCCCN(CCO)CCCCCCCC(=O)OC(CCC1CC1CCCC)CCC1CC1CCCC (stereo not drawn) [Compound 160, 1,5-Bis(2-butylcyclopropyl)pentan-3-yl 8-((2-hydroxyethyl)(8-(nonyloxy)-8-oxooctyl)amino)octanoate] | – | – | – |
| 36000 | 24200 | 84.5 | 91.2 | CCCCCCCCCOC(=O)C(C)CCCCCCN(CCO)CCCCCCCC(=O)OC(CCCCCCCC)CCCCCCCC (stereo not drawn) [Compound 164, Nonyl 8-((8-(heptadecan-9-yloxy)-8-oxooctyl)(2-hydroxyethyl)amino)-2-methyloctanoate] | – | – | Novel lipid/MC3 ratio, i.v. ([4]; Table 3G, intravenous, luciferase, 6 hr. timepoint, relative to MC3): 1.24; Size ([2]; Table 1D, compositions for subcutaneous administration, # formulated with hEPO mRNA): 75.7 nm |
| – | – | 61 | 96.04 | CCCCCCCCCOC(=O)CCCCCCCN(CCCCCCCC(=O)OC(CCCCCCCC)CCCCCCCC)C(C)CO (stereo not drawn) [Compound 157, Heptadecan-9-yl 8-((1-hydroxypropan-2-yl)(8-(nonyloxy)-8-oxooctyl)amino)octanoate] | 0.79 | – | AUC ([4]; intravenous administration (Table 3D)): 2.481E+011 p/s*h; Total Flux, Liver [6]: 2.27E+09; Total Flux, Lung [6]: 6.70E+06; Total Flux, Spleen [6]: 5.15E+07 |
| 16000 | 2990 | 77.3 | 95.4 | CCCCCCCCC(CCCCCCCC)OC(=O)CCCCCCCN(CCO)CCCCCCCC(=O)O[C@H](C)CCCCCCCC [Compound 172, (R)-Decan-2-yl 8-((8-(heptadecan-9-yloxy)-8-oxooctyl)(2-hydroxyethyl)amino)octanoate] | – | – | – |
| 260 | 0 | 77.2 | 94.2 | CCCCCCCCC(CCCCCCCC)OC(=O)CCCCCCCN(CCO)CCCCCCCC(=O)OCC(C)CCCCCCC (stereo not drawn) [Compound 184, Heptadecan-9-yl 8-((2-hydroxyethyl)(8-((2-methylnonyl)oxy)-8-oxooctyl)amino)octanoate] | – | – | Size [2, 9]: 85.8 nm; EE [3, 9]: 96.5% |
| – | – | 118.9 | 86.10 | CCCCCCCCCN(CCCO)CCCCCCCC(=O)OC(CCCCCCCC)CCCCCCCC [Compound 7, Heptadecan-9-yl 8-((3-hydroxypropyl)(nonyl)amino)octanoate] | 1.10 | 0.88 | Total Flux, Liver [6]: 2.49E+09; Total Flux, Lung [6]: 3.95E+07; Total Flux, Spleen [6]: 4.83E+08; Cytokine induction, IL-6 [7]: 116.35; Cytokine induction, IP-10 [7]: 4959.16 |
| – | – | 104.5 | 92.68 | CCCCCCCCCOC(=O)CCCCCCCN(CCO)CCCCCCCCCC(=O)OC(CCCCCCCC)CCCCCCCC [Compound 23, Heptadecan-9-yl 10-((2-hydroxyethyl)(8-(nonyloxy)-8-oxooctyl)amino) decanoate] | 0.30 | 0.04 | Size [2, 10]: 70.5 nm; Cytokine induction, IL-6 [7]: 94.00; Cytokine induction, IP-10 [7]: 1015.95 |
| – | – | 71 | 97.54 | CCCCCCCCC(CCCCCCCC)OC(=O)CCCCCCCN(CCO)CCCC(=O)OC(CCCCC)CCCCCCCC (stereo not drawn) [Compound 71, Heptadecan-9-yl 8-((2-hydroxyethyl)(4-oxo-4-(tetradecan-6-yloxy)butyl)amino)octanoate] | 0.08 | 0.42 | Total Flux, Liver [6]: 7.93E+08; Total Flux, Lung [6]: 4.86E+06; Total Flux, Spleen [6]: 8.04E+06 |
| 42.8 | 0 | 92.2 | 87.2 | CCCCCCCOC(=O)CCCCCCCCCN(CCO)CCCCCCCCCC(=O)OC(CCCCCC)CCCCCC [Compound 186, Heptyl 10-((2-hydroxyethyl)(10-oxo-10-(tridecan-7-yloxy)decyl)amino)decanoate] | – | – | – |
| – | – | 84.4 | 99.0 | CCCCCCCCCOC(=O)CCCCCCCN(CCCCCCCC(=O)OC(CCCCCCCC)CCCCCCCC)CCCNc1c(NC)c(=O)c1=O [Compound 182, Heptadecan-9-yl 8-((3-((2-(methylamino)-3,4-dioxocyclobut-1-en-1-yl)amino)propyl)(8-(nonyloxy)-8-oxooctyl)amino)octanoate] | 6.80 | 0.66 | – |
| 69.9 | 0 | 245.3 | 32.3 | CCCCCCCCCOC(=O)CCCCCCCN(CCO)CCCCCCCC(=O)OC(COCCCCCC)COCCCCCC [Compound 183, 1,3-Bis(hexyloxy)propan-2-yl 8-((2-hydroxyethyl)(8-(nonyloxy)-8-oxooctyl)amino)octanoate] | – | – | – |
| 47000 | 32800 | 100.5 | 85.0 | CCCCCCCCCC(C)(O)CCCCCCCCN(CCO)CCCCCCCC(=O)OC(CCCCCCCC)CCCCCCCC (stereo not drawn) [Compound 171, Heptadecan-9-yl 8-((9-hydroxy-9-methyloctadecyl)(2-hydroxyethyl)amino)octanoate] | – | – | – |
| 187 | 0 | 67.6 | 94.3 | CCCCCCCCC(CCCCCCCC)OC(=O)CCCCCCCN(CCO)C(C)CCCCCCCCOC(=O)CCCCCCC (stereo not drawn) [Compound 161, Heptadecan-9-yl 8-((2-hydroxyethyl)(10-(octanoyloxy)decan-2-yl)amino)octanoate] | – | – | – |
| – | – | 81.1 | – | CCCCCCCCCOC(=O)CCCCCCCN(CCCCCCCC(=O)OC(CCCCCCCC)CCCCCCCC)CCCNS(C)(=O)=O [Compound 109, Heptadecan-9-yl 8-((3-(methylsulfonamido)propyl)(8-(nonyloxy)-8-oxooctyl)amino)octanoate] | – | 0.35 | Total flux 6 hours after intramuscular administration, 0.01 mpk Dose ([5]; Luc mRNA, 0.01 mpk, 6 hours): 1.18E+08 p/s; Total Flux, Liver [6]: 8.17E+08; Total Flux, Lung [6]: 6.03E+06; Total Flux, Spleen [6]: 4.81E+07; Size [2, 9]: 75 nm; Size [2, 10]: 67.0 nm; EE [3, 9]: 98.29% |
| 31200 | 27000 | 69.6 | 98.3 | CCCCCCCCCCCOC(=O)CCCCCN(CCO)CCCCCC(=O)OC(CCCCCCCCCC)CCCCCCCCCC [Compound 185, Henicosan-11-yl 6-((2-hydroxyethyl)(6-oxo-6-(undecyloxy)hexyl)amino)hexanoate] | – | – | – |

Source: patent US10857105B2, “Compounds and compositions for intracellular delivery of therapeutic agents” (ModernaTX, Inc., priority 2017, dated 2020)
